Source: patent publication US20090246153A1, “COSMETIC COMPOSITIONS FOR THE INHIBITION OF REACTIVE OXYGEN SPECIES” (Nu Skin International, Inc., priority 2008, published 2009)

What was measured:
[1] = test system: arNOX; experiment: arNOX inhibition: superoxide formation measured by reduction of ferric cytochrome c, serum or buffy coats; assay type: biochemical
Method: Superoxide Production By Buffy Coats: Buffy coats, a mixture of lymphocytes and platelets. Such buffy coats are commercially available from, for example Rockland ImmunoChemicals (Gilbertsville, Pa.). The blood samples were maintained at 4° C. prior to collection and assay. Ca. 10^7 cells were added to each assay. Cell numbers were determined using a hemocytometer.
Reduction of ferric cytochrome c by superoxide was employed as a standard measure of superoxide formation (Mayo, L. A. and Cumutte, J. (1990) Meth. Enzyme. 186, 567-575. 7. Butler, J, Koppenol, W. H. and Margollash, E. (1982) J. Biol. Chem. 257, 10747). This is a widely accepted method when coupled to superoxide dismutase inhibition for the measurement of superoxide generation. The assay consists of 150 μl serum or 40 μl buffy coats in PBSG buffer (8.06 g NaCl, 0.2 g KCl, 0.18 g Na2HPO4, 0.26 g KH2PO4, 0.13 g CaCl2, 0.1 g MgCl2 1.35 g glucose dissolved in 1000 ml deionized water, adjusted to pH 7.4, filtered and stored at 4° C.) Rates were determined using an SLM Aminco DW-2000 spectrophotometer (Milton Roy, Rochester, N.Y., USA) in the dual wave length mode of operation with continuous measurements over 1 min every 1.5 min. After 45 min, test compounds were added and the reaction was continued for 45 min. After 45 min. A millimolar extinction coefficient of 19.1 cm^−1 was used for reduced ferricytochrome c. The results of the test compounds are provided in Table I. Extracts were made of the compounds in water unless otherwise indicated.

[2] = test system: arNOX; settings: cited from earlier work

SMILES	ArNOX ACTIVITY % OF NO ADDITION ([1]; Ethanol, 25 μg/ml)	INHIBITION (−) or STIMULATION (+) ([1]; Ethanol, 25 μg/ml)	ArNOX ACTIVITY % OF NO ADDITION ([1]; Ethanol, 0.25 μg/ml)	INHIBITION (−) or STIMULATION (+) ([1]; Ethanol, 0.25 μg/ml)	ArNOX ACTIVITY % OF NO ADDITION ([1]; Ethanol, 2.5 μg/ml)	INHIBITION (−) or STIMULATION (+) ([1]; Ethanol, 2.5 μg/ml)	ArNOX ACTIVITY % OF NO ADDITION ([1]; Water, 25 μg/ml)	INHIBITION (−) or STIMULATION (+) ([1]; Water, 25 μg/ml)	arNOX activity of aging cells [2]
CC1=C(/C=C/C(C)=C/C=C/C(C)=C/C=C/C=C(C)/C=C/C=C(C)/C=C/C2=C(C)C(=O)[C@@H](O)CC2(C)C)C(C)(C)C[C@H](O)C1=O [Natural astaxanthin, astaxanthin]	62%	−38%	–	–	–	–	–	–	–
CC1=C(/C=C/C(C)=C/C=C/C(C)=C/C=C/C=C(C)/C=C/C=C(C)/C=C/C2=C(C)CCCC2(C)C)C(C)(C)CCC1 [β-Carotene]	68%	−32%	73%	−42%	50%	−50%	28%	−72%	–
COC1=C(OC)C(=O)C(C/C=C(\C)CC/C=C(\C)CC/C=C(\C)CC/C=C(\C)CC/C=C(\C)CC/C=C(\C)CC/C=C(\C)CC/C=C(\C)CC/C=C(\C)CCC=C(C)C)=C(C)C1=O [co-enzyme Q, ubiquinone]	–	–	–	–	–	–	–	–	inhibited
